The values below come from patent US12421210B2, “Fused bicyclic heterocycles as therapeutic agents” (NEW YORK UNIVERSITY, priority 2018, dated 2025).

The target in the first test is human NAMPT enzyme (His-hNAMPT) (Homo sapiens (Human), UniProt P43490). In words: NAMPT enzymatic inhibition assay (fluorescence, NADH product). It is filed as biochemical. The conditions noted are these: [BPS]; read-out: NAMPT IC50 (μM) [BPS].
Sequence of human NAMPT enzyme (His-hNAMPT) (P43490 whole entry): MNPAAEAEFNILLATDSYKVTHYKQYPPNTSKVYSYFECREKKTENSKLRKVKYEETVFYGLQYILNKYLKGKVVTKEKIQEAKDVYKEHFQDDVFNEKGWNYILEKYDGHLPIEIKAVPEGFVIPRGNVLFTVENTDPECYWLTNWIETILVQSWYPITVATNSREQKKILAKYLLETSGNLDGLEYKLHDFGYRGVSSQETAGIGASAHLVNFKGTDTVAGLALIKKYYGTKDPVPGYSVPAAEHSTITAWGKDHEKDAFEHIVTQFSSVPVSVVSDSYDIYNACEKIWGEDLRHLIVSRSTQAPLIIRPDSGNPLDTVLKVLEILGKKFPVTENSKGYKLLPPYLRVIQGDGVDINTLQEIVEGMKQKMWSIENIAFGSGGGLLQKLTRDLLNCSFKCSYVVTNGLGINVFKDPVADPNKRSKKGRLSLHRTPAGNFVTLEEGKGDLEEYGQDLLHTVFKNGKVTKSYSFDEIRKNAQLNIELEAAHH
For the compound `Nc1ccc(/C=C/C(=O)NCC[C@@H]2[C@H]3CN(C(=O)c4cccc(C(=O)O)c4)C[C@@H]23)cn1` [Example 178, 3-((1R,5S,6s)-6-(2-((E)-3-(6-aminopyridin-3-yl)acrylamido)ethyl)-3-azabicyclo[3.1.0]hexane-3-carbonyl)benzoic acid], the IC50 lay in the range of 0.01 to 0.49 µM.
Turning to `Nc1ccc(/C=C/C(=O)NCC[C@@H]2[C@H]3CN(C(=O)c4ccc(C(=O)O)cc4)C[C@@H]23)cn1` [Example 179, 4-((1R,5S,6s)-6-(2-((E)-3-(6-aminopyridin-3-yl)acrylamido)ethyl)-3-azabicyclo[3.1.0]hexane-3-carbonyl)benzoic acid], the IC50 is 1 to 29 µM.
Same read-out and setting: in the case of `O=C(O)c1cccc(C(=O)N2C[C@@H]3[C@@H](CCNC(=O)c4cc5ccncc5o4)[C@@H]3C2)c1` [Example 180, 3-((1R,5S,6s)-6-(2-(furo[2,3-c]pyridine-2-carboxamido)ethyl)-3-azabicyclo[3.1.0]hexane-3-carbonyl)benzoic acid] it was 0.5 to 0.99 µM; in that of `O=C(O)c1cccc(C(=O)N2C[C@@H]3[C@@H](CCNC(=O)c4ccc5nccn5c4)[C@@H]3C2)c1` [Example 181, 3-((1R,5S,6s)-6-(2-(imidazo[1,2-a]pyridine-6-carboxamido)ethyl)-3-azabicyclo[3.1.0]hexane-3-carbonyl)benzoic acid], 1 to 29 µM.
On to `Nc1ccc(/C=C/C(=O)NCC[C@@H]2[C@H]3CN(c4ncccn4)C[C@@H]23)cn1` [Example 189, (E)-3-(6-aminopyridin-3-yl)-N-(2-((1R,5S,6s)-3-(pyrimidin-2-yl)-3-azabicyclo[3.1.0]hexan-6-yl)ethyl)acrylamide], for which the IC50 was in the range of 0.01 to 0.49 µM.
On to `Nc1ccc(/C=C/C(=O)NCC[C@@H]2[C@H]3CN(c4nc5ccccc5s4)C[C@@H]23)cn1` [Example 190, (E)-3-(6-aminopyridin-3-yl)-N-(2-((1R,5S,6s)-3-(benzo[d]thiazol-2-yl)-3-azabicyclo[3.1.0]hexan-6-yl)ethyl)acrylamide], for which the IC50 lay in the range of 0.01 to 0.49 µM.
On the same count and under the same terms, in the case of `Nc1ccc(/C=C/C(=O)NCC[C@@H]2[C@H]3CN(c4cccc5ccccc45)C[C@@H]23)cn1` [Example 191, (E)-3-(6-aminopyridin-3-yl)-N-(2-((1R,5S,6s)-3-(naphthalen-1-yl)-3-azabicyclo[3.1.0]hexan-6-yl)ethyl)acrylamide] it was 0.01 to 0.49 µM.

The same test, now with this note: [HDB]; read-out: NAMPT IC50 (μM) [HDB].
For `COc1cc(N2C[C@@H]3[C@@H](CCNC(=O)/C=C/c4cccnc4)[C@@H]3C2)ccn1` [Example 161, (E)-N-(2-((1R,5S,6S)-3-(2-methoxypyridin-4-yl)-3-azabicyclo[3.1.0]hexan-6-yl)ethyl)-3-(pyridin-3-yl)acrylamide], the IC50 was 0.01 to 0.49 µM.
Regarding `O=C(/C=C/c1cccnc1)NCC[C@@H]1[C@H]2CN(c3ncc(C(F)(F)F)cn3)C[C@@H]12` [Example 162, (E)-3-(pyridin-3-yl)-N-(2-((1R,5S,6s)-3-(5-(trifluoromethyl)pyrimidin-2-yl)-3-azabicyclo[3.1.0]hexan-6-yl)ethyl)acrylamide], the IC50 fell in the range of 0.01 to 0.49 µM.
Regarding `O=C(/C=C/c1cccnc1)NCC[C@@H]1[C@H]2CN(c3ncc(F)cn3)C[C@@H]12` [Example 163, (E)-N-(2-((1R,5S,6s)-3-(5-fluoropyrimidin-2-yl)-3-azabicyclo[3.1.0]hexan-6-yl)ethyl)-3-(pyridin-3-yl)acrylamide], the IC50 is 0.01 to 0.49 µM.
In the case of `O=C(/C=C/c1cccnc1)NCC[C@@H]1[C@H]2CN(c3ncc(Cl)cn3)C[C@@H]12` [Example 164, (E)-N-(2-((1R,5S,6s)-3-(5-chloropyrimidin-2-yl)-3-azabicyclo[3.1.0]hexan-6-yl)ethyl)-3-(pyridin-3-yl)acrylamide], the IC50 fell in the range of 0.01 to 0.49 µM.
Take `Nc1ccc(/C=C/C(=O)NCC[C@@H]2[C@H]3CN(c4ncc5ccccc5n4)C[C@@H]23)cn1` [Example 165, (E)-3-(6-aminopyridin-3-yl)-N-(2-((1R,5S,6s)-3-(quinazolin-2-yl)-3-azabicyclo[3.1.0]hexan-6-yl)ethyl)acrylamide]: the concentration for half-maximal inhibition (IC50) lay within 0.01 to 0.49 µM.
For `O=C(/C=C/c1cccnc1)NCC[C@@H]1[C@H]2CN(c3ncc4c(n3)CCOC4)C[C@@H]12` [Example 166, (E)-N-(2-((1R,5S,6s)-3-(7,8-dihydro-5H-pyrano[4,3-d]pyrimidin-2-yl)-3-azabicyclo[3.1.0]hexan-6-yl)ethyl)-3-(pyridin-3-yl)acrylamide], the half-maximal inhibitory concentration (IC50) lay in the range of 0.01 to 0.49 µM.
`O=C(/C=C/c1cccnc1)NCC[C@@H]1[C@H]2CN(c3ncc4cc(F)ccc4n3)C[C@@H]12` [Example 167, (E)-N-(2-((1R,5S,6s)-3-(6-fluoroquinazolin-2-yl)-3-azabicyclo[3.1.0]hexan-6-yl)ethyl)-3-(pyridin-3-yl)acrylamide]: the IC50 lay within 0.01 to 0.49 µM.
Consider `O=C(/C=C/c1cccnc1)NCC[C@@H]1[C@H]2CN(c3ccncn3)C[C@@H]12` [Example 168, (E)-3-(pyridin-3-yl)-N-(2-((1R,5S,6s)-3-(pyrimidin-4-yl)-3-azabicyclo[3.1.0]hexan-6-yl)ethyl)acrylamide], for which the concentration for half-maximal inhibition (IC50) is 0.01 to 0.49 µM.
With `O=C(/C=C/c1cccnc1)NCC[C@@H]1[C@H]2CN(c3nccc(C(F)(F)F)n3)C[C@@H]12` [Example 169, (E)-3-(pyridin-3-yl)-N-(2-((1R,5S,6s)-3-(4-(trifluoromethyl)pyrimidin-2-yl)-3-azabicyclo[3.1.0]hexan-6-yl)ethyl)acrylamide], the IC50 was below 0.01 µM.
On the same count and under the same terms, the figure for `O=C(/C=C/c1cccnc1)NCC[C@@H]1[C@H]2CN(c3ncncn3)C[C@@H]12` [Example 170, (E)-N-(2-((1R,5S,6s)-3-(1,3,5-triazin-2-yl)-3-azabicyclo[3.1.0]hexan-6-yl)ethyl)-3-(pyridin-3-yl)acrylamide] is 0.01 to 0.49 µM.
On to `NC(=O)c1ccnc(N2C[C@@H]3[C@@H](CCNC(=O)/C=C/c4cccnc4)[C@@H]3C2)n1` [Example 171, 2-((1R,5S,6s)-6-(2-((E)-3-(pyridin-3-yl)acrylamido)ethyl)-3-azabicyclo[3.1.0]hexan-3-yl)pyrimidine-4-carboxamide], for which the IC50 is below 0.01 µM.
For the compound `O=C(/C=C/c1cccnc1)NCC[C@@H]1[C@H]2CN(c3nc(Cl)ncc3F)C[C@@H]12` [Example 172, (E)-N-(2-((1R,5S,6s)-3-(2-chloro-5-fluoropyrimidin-4-yl)-3-azabicyclo[3.1.0]hexan-6-yl)ethyl)-3-(pyridin-3-yl)acrylamide], the IC50 was below 0.01 µM.
For `COc1nc(N2C[C@@H]3[C@@H](CCNC(=O)/C=C/c4cccnc4)[C@@H]3C2)ncc1F` [Example 173, (E)-N-(2-((1R,5S,6s)-3-(5-fluoro-4-methoxypyrimidin-2-yl)-3-azabicyclo[3.1.0]hexan-6-yl)ethyl)-3-(pyridin-3-yl)acrylamide], the IC50 lay within 0.01 to 0.49 µM.
In the case of `NC(=O)c1cnc(N2C[C@@H]3[C@@H](CCNC(=O)/C=C/c4cccnc4)[C@@H]3C2)nc1` [Example 174, 2-((1R,5S,6s)-6-(2-((E)-3-(pyridin-3-yl)acrylamido)ethyl)-3-azabicyclo[3.1.0]hexan-3-yl)pyrimidine-5-carboxamide], the IC50 is below 0.01 µM.
Consider `O=C(/C=C/c1cccnc1)NCC[C@@H]1[C@H]2CN(c3nc(C(F)(F)F)cs3)C[C@@H]12` [Example 175, (E)-3-(pyridin-3-yl)-N-(2-((1R,5S,6s)-3-(4-(trifluoromethyl)thiazol-2-yl)-3-azabicyclo[3.1.0]hexan-6-yl)ethyl)acrylamide], for which the concentration for half-maximal inhibition (IC50) lay in the range of 0.01 to 0.49 µM.
As for `O=C(/C=C/c1cccnc1)NCC[C@@H]1[C@H]2CN(c3ccccn3)C[C@@H]12` [Example 176, (E)-N-(2-((1R,5S,6s)-3-(pyridin-2-yl)-3-azabicyclo[3.1.0]hexan-6-yl)ethyl)-3-(pyridin-3-yl)acrylamide], the concentration for half-maximal inhibition (IC50) is 0.01 to 0.49 µM.
Consider `O=C(/C=C/c1cccnc1)NCC[C@@H]1[C@H]2CN(c3cnccn3)C[C@@H]12` [Example 177, (E)-N-(2-((1R,5S,6s)-3-(pyrazin-2-yl)-3-azabicyclo[3.1.0]hexan-6-yl)ethyl)-3-(pyridin-3-yl)acrylamide], for which the concentration for half-maximal inhibition (IC50) lay within 0.01 to 0.49 µM.
As to `Nc1ccc(/C=C/C(=O)NCC[C@@H]2[C@H]3CN(C(=O)c4ccc(C(=O)O)cc4)C[C@@H]23)cn1` [Example 179, 4-((1R,5S,6s)-6-(2-((E)-3-(6-aminopyridin-3-yl)acrylamido)ethyl)-3-azabicyclo[3.1.0]hexane-3-carbonyl)benzoic acid], the IC50 was 0.5 to 0.99 µM.
Turning to `O=C(O)c1cccc(C(=O)N2C[C@@H]3[C@@H](CCNC(=O)c4cnc5nccn5c4)[C@@H]3C2)c1` [Example 182, 3-((1R,5S,6s)-6-(2-(imidazo[1,2-a]pyrimidine-6-carboxamido)ethyl)-3-azabicyclo[3.1.0]hexane-3-carbonyl)benzoic acid], the IC50 was 0.01 to 0.49 µM.
As to `NC(=O)c1cccc(N2C[C@@H]3[C@@H](CCNC(=O)/C=C/c4cccnc4)[C@@H]3C2)c1` [Example 183, 3-((1R,5S,6s)-6-(2-((E)-3-(pyridin-3-yl)acrylamido)ethyl)-3-azabicyclo[3.1.0]hexan-3-yl)benzamide], the half-inhibitory concentration (IC50) lay in the range of 0.01 to 0.49 µM.
In the case of `CC(=O)Nc1cccc(N2C[C@@H]3[C@@H](CCNC(=O)/C=C/c4cccnc4)[C@@H]3C2)c1` [Example 184, (E)-N-(2-((1R,5S,6s)-3-(3-acetamidophenyl)-3-azabicyclo[3.1.0]hexan-6-yl)ethyl)-3-(pyridin-3-yl)acrylamide], the IC50 was in the range of 0.01 to 0.49 µM.
Consider `CS(=O)(=O)Nc1cccc(N2C[C@@H]3[C@@H](CCNC(=O)/C=C/c4cccnc4)[C@@H]3C2)c1` [Example 185, (E)-N-(2-((1R,5S,6s)-3-(3-(methylsulfonamido)phenyl)-3-azabicyclo[3.1.0]hexan-6-yl)ethyl)-3-(pyridin-3-yl)acrylamide], for which the IC50 was in the range of 0.01 to 0.49 µM.
`NC(=O)c1ccc(N2C[C@@H]3[C@@H](CCNC(=O)/C=C/c4cccnc4)[C@@H]3C2)cc1` [Example 186, 4-((1R,5S,6s)-6-(2-((E)-3-(pyridin-3-yl)acrylamido)ethyl)-3-azabicyclo[3.1.0]hexan-3-yl)benzamide]: the IC50 lay within 0.01 to 0.49 µM.
In the case of `O=C(/C=C/c1cccnc1)NCC[C@@H]1[C@H]2CN(c3ncc(F)c(O)n3)C[C@@H]12` [Example 187, (E)-N-(2-((1R,5S,6s)-3-(5-fluoro-4-hydroxypyrimidin-2-yl)-3-azabicyclo[3.1.0]hexan-6-yl)ethyl)-3-(pyridin-3-yl)acrylamide], the IC50 was in the range of 0.01 to 0.49 µM.
For `O=C(/C=C/c1cccnc1)NCC[C@@H]1[C@H]2CN(c3ncc(F)c(Cl)n3)C[C@@H]12` [Example 188, (E)-N-(2-((1R,5S,6s)-3-(4-chloro-5-fluoropyrimidin-2-yl)-3-azabicyclo[3.1.0]hexan-6-yl)ethyl)-3-(pyridin-3-yl)acrylamide], the IC50 was below 0.01 µM.

Usually IC50 stands for the point on the concentration scale where inhibition reaches its midpoint.
